# Laboratory results reported in patent US7687623B2, “Pyrrolobenzodiazepines and heterocyclic carboxamide derivatives as follicle stimulating hormone receptor (FSH-R) antagonists” (Wyeth LLC, priority 2005, dated 2010).
# What was measured:
# [1] = molecular target: T1, human FSH receptor (Homo sapiens, UniProt P23945); test: FSH receptor-dependent CRE-luciferase reporter gene assay (CHO FSH-R 6CRE-Luc, 1D7 cells); assay type: cell-based; conditions: for IC50: dose-response format in presence of EC50 of purified human FSH
# T1 construct: host or cells: CHO-K1 (CHO FSH-R 6CRE-Luc, 1D7 cells)
# T1 sequence (P23945 18-695): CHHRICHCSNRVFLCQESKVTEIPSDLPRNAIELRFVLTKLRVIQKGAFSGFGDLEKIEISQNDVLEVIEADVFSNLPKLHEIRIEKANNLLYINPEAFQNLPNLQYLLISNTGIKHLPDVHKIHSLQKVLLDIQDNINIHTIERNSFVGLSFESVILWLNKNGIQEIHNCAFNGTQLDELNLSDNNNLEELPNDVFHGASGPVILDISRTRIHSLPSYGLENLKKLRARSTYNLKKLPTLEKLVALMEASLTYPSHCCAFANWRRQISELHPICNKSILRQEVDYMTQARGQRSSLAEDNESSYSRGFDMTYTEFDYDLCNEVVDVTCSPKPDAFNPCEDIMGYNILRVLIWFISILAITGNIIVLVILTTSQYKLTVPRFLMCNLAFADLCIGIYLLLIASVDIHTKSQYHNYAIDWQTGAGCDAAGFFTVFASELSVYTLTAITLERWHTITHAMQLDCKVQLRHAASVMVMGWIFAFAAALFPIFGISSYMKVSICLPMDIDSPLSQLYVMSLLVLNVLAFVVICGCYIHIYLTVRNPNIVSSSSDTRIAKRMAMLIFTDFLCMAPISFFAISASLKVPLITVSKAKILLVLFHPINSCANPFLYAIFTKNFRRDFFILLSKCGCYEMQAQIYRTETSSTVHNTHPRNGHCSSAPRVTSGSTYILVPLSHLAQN
# Method: This procedure was used to identify and determine the relative potencies of human FSH receptor antagonists using a Chinese hamster ovarian cell line that stably produces the human FSH receptor and a luciferase reporter gene regulated by cAMP response elements.
# The compounds were subsequently diluted in DMSO to working dilutions of 1 and 20 or 30 mM for 2-dose testing format and 1 μM-10 mM for dose-response format. The DMSO dilutions were diluted 500-fold in sterile growth medium [D-MEM/F-12 (GIBCO/BRL; Grand Island N.Y.) containing 15 mM HEPES, 2 mM 1-glutamine, pyridoxine hydrochloride, phenol red and 5% FetalClone II (HyClone Laboratories, Inc; Logan, Utah), 0.2% DMSO, 100 units penicillin G/ml, and 100 μg streptomycin sulfate/ml (GIBCO/BRL)]. The concentration of the vehicle in each of the compound dilutions was the same. POSITIVE CONTROLS: Purified human FSH (>98%) was purchased from Cortex Biochem, Inc. (San Leandro, Calif.) and a known FSH-R thiazolidinone antagonist was obtained from the Wyeth Research compound repository. Preparation of Cells
# The CHO FSH-R 6CRE-Luc cells (1D7 cells) were obtained from Affymax (Palo Alto, Calif.). These Chinese hamster ovary cells (CHO-K1) were genetically engineered to stably express the recombinant human FSH receptor gene and a luciferase reporter gene under the regulation of 6 copies of a cAMP response element. The cells were plated one day prior to treatment into 96-well white opaque plates at a density of 50,000 cells/100 μl/well in growth medium. On the day of treatment, the growth medium was removed from the wells by aspiration and 50 µl of fresh growth medium was added to each well. The cells were incubated at 37° C. in a humidified incubator with 5% CO2/95% air.
# The treated cells were incubated for 4 hours at 37° C. in a humidified incubator with 5% CO2/95% air. At the end of the incubation period, luciferase activity was measured by chemiluminescence using a commercially available kit (LucScreen, Tropix, Inc., Bedford, Mass.) according to the manufacturer's specifications, except that Buffer 1 and Buffer 2 were mixed together in equal proportion prior to the addition of 100 μl of the combined reagents to each well. Chemiluminescence was detected using a luminometer (EG & G Berthold Microlumat LB 96 P, Wallac, Gaithersburg, Md.) with chemiluminescence measured for 1 sec/well.
# Background luminescence was measured for each well prior to the addition of the LucScreen reagent.
# In the 96-well 2-dose format, each compound was tested in duplicate at each dose. […] One plate was used to test a maximum of 22 compounds.
# The EC50 of purified human FSH alone was tested in triplicate with each test compound. The doses chosen to test each compound were extrapolated from the initial 2-dose screening process. Along with the test compounds, purified human FSH was also tested in a dose response (0.03, 0.1, 0.3, 1, 3, 10, and 30 ng/ml) for a positive control and quality control. One plate was used for 3 test compounds and the FSH positive control.
# Luciferase activity is expressed as relative light units/sec/well. Luciferase activity in antagonist was compared to the appropriate negative and positive controls. For 2-dose testing, results are reported as luciferase activity and are expressed as % inhibition of the response obtained from the EC50 of FSH. For dose-response testing, results are reported as IC50 values. Data were analyzed statistically by one-way analysis of variance with appropriate weighting and transformation and relevant paired test as determined by Biometrics (Wyeth Research, Princeton, N.J.). IC50 values were calculated using the Stat/Excel program developed by Biometrics with appropriate weighting and transformation.
# [2] = molecular target: T2, hFSH-R (Homo sapiens, UniProt P23945); test: cAMP accumulation (RIA) in CHO-3D2 cells (hFSH-R), hFSH-induced; assay type: cell-based; conditions: for Emax: read-out: cAMP % Efficacy
# T2 construct: expressed in transfected cells; host or cells: CHO-3D2 cells
# T2 sequence (P23945 18-695): T1 sequence (P23945 18-695)
# Method: COMPOUND VEHICLE: Stock compounds were solubilized in 100% DMSO (Sigma Chemical Co.) at a concentration of 30 mM. The compounds were subsequently diluted in sterile assay medium consisting of Opti-MEM® I (Life Technologies) with 0.1% (w/v) BSA (Sigma), prior to use in the bio-assay. The final concentration of DMSO in the assay is 0.1%.
# Plated cells are then incubated at 37° C. in a humidified 5% CO2/95% air, atmosphere.
# On the day of the assay, cells were washed three times with 100 μl/well of assay medium consisting of Opti-MEM® I (Life Technologies) with 0.1% (w/v) BSA (Sigma). Medium was removed and 100 μl of assay medium was added to each well. Plates were incubated for an additional 30 minutes at 37° C. […] Reactions were terminated by the addition of 50 μl of 0.2N hydrochloric acid to each well and cAMP-accumulation was measured by radioimmunoassay (RIA) using a commercially available kit (Amersham).
# All test compounds were evaluated in a dose-response paradigm ranging from about 0.01 to about 30 μM. Controls and test compounds were evaluated in quadruplicate in a 96-well format.
# Along with the test compounds, FSH was also run as a positive control in the agonist mode using concentrations ranging from about 0.1-1000 ng/ml.
# Data were analyzed by one-way analysis of variance and significant differences between treatments and control determined by Least Significant Difference test.
# Test compounds were compared to the effect of purified human FSH.
Compound,IC50 [1],melting point,"inhibition at 30 µM ([1]; 2-dose format, test concentration 30 μM in parentheses, % inhibition of the response to EC50 of FSH)",IC50 [2],Emax [2]
"COc1ccccc1-c1ccc(C(=O)N2Cc3ccc(C(=O)NCc4cccn4C)n3Cc3ccccc32)cc1 [Example 2, 10-[(2′-Methoxy-1,1′-biphenyl-4-yl)carbonyl]-N-[(1-methyl-1H-pyrrol-2-yl)methyl]-10,11-dihydro-5H-pyrrolo[2,1-c][1,4]benzodiazepine-3-carboxamide]",42.6 µM,148 to 150 °C,–,1.2 µM,79%
"COc1ccccc1-c1ccc(C(=O)N2Cc3ccc(C(=O)NCc4cc(C)on4)n3Cc3ccccc32)cc1 [Example 5, 10-[(2′-Methoxy-1,1′-biphenyl-4-yl)carbonyl]-N-[(5-methylisoxazol-3-yl)methyl]-10,11-dihydro-5H-pyrrolo[2,1-c][1,4]benzodiazepine-3-carboxamide]",10.2 µM,111 to 113 °C,–,0.6 µM,96%
"Cc1ccccc1-c1ccc(C(=O)N2Cc3ccc(C(=O)NCc4csc(-c5ccc(Cl)cc5)n4)n3Cc3ccccc32)cc1C [Example 11, N-{[2-(4-Chlorophenyl)-1,3-thiazol-4-yl]methyl}-10-[(2,2′-dimethyl-1,1′-biphenyl-4-yl)carbonyl]-10,11-dihydro-5H-pyrrolo[2,1-c][1,4]benzodiazepine-3-carboxamide]",–,198 to 201 °C,–,–,–
"COc1ccccc1-c1ccc(C(=O)N2Cc3ccc(C(=O)NCc4cc(C)oc4C)n3Cc3ccccc32)cc1 [Example 6, N-[(2,5-Dimethyl-3-furyl)methyl]-10-[(2′-methoxy-1,1′-biphenyl-4-yl)carbonyl]-10,11-dihydro-5H-pyrrolo[2,1-c][1,4]benzodiazepine-3-carboxamide]",3.3 µM,–,–,0.3 µM,81%

# Second part, the molecule after the results:
IC50 [1],melting point,"inhibition at 30 µM ([1]; 2-dose format, test concentration 30 μM in parentheses, % inhibition of the response to EC50 of FSH)",IC50 [2],Emax [2],Compound
> 30 µM,–,–,–,–,"Cc1ccccc1-c1ccc(C(=O)N2Cc3ccc(C(=O)NCC4CCCNC4)n3Cc3ccccc32)cc1C (centres unmarked) [Example 12, 10-[(2,2′-Dimethyl-1,1′-biphenyl-4-yl)carbonyl]-N-(piperidin-3-ylmethyl)-10,11-dihydro-5H-pyrrolo[2,1-c][1,4]benzodiazepine-3-carboxamide]"
–,180 to 182 °C,26%,–,–,"COc1ccccc1-c1ccc(C(=O)N2Cc3ccc(C(=O)NCC4CN(Cc5ccccc5)CCO4)n3Cc3ccccc32)cc1 (centres unmarked) [Example 7, N-[(4-Benzylmorpholin-2-yl)methyl]-10-[(2′-methoxy-1,1′-biphenyl-4-yl)carbonyl]-10,11-dihydro-5H-pyrrolo[2,1-c][1,4]benzodiazepine-3-carboxamide]"
> 30 µM,222 to 224 °C,–,–,–,"Cc1cc(C(=O)N2Cc3ccc(C(=O)NCc4cccn4C)n3Cc3ccccc32)ccc1-c1c(C)cccc1C [Example 8, N-[(1-Methyl-1H-pyrrol-2-yl)methyl]-10-[(2,2′,6′-trimethyl-1,1′-biphenyl-4-yl)carbonyl]-10,11-dihydro-5H-pyrrolo[2,1-c][1,4]benzodiazepine-3-carboxamide]"
–,133 to 135 °C,–,–,–,"COc1ccc(-c2nc(CNC(=O)c3ccc4n3Cc3ccccc3N(C(=O)c3ccc(-c5ccccc5C)c(C)c3)C4)no2)cc1 [Example 10, 10-[(2,2′-Dimethyl-1,1′-biphenyl-4-yl)carbonyl]-N-{[5-(4-methoxyphenyl)-1,2,4-oxadiazol-3-yl]methyl}-10,11-dihydro-5H-pyrrolo[2,1-c][1,4]benzodiazepine-3-carboxamide]"
> 30 µM,233 to 234 °C,–,–,–,"Cc1cc(CNC(=O)c2ccc3n2Cc2ccccc2N(C(=O)c2ccc(-c4c(C)cccc4C)c(C)c2)C3)no1 [Example 4, N-[(5-Methylisoxazol-3-yl)methyl]-10-[(2,2′,6′-trimethyl-1,1′-biphenyl-4-yl)carbonyl]-10,11-dihydro-5H-pyrrolo[2,1-c][1,4]benzodiazepine-3-carboxamide]"
